The values below come from publication PMC8284461, “Piperidine-4-Carboxamides Target DNA Gyrase in Mycobacterium abscessus” (Antimicrobial Agents and Chemotherapy, 2021).

In brackets after ≈: the same amount, converted by molar mass.

By IC50 is commonly meant the point on the concentration scale where inhibition reaches its midpoint.

In assay [1] the test system is M. abscessus subsp. abscessus ATCC 19977. The experiment in a line: MIC, broth microdilution. The assay is classed as cell-based, Mycobacterium abscessus. The note with it: abscessus ATCC 19977 wild type, 90% growth inhibition, 3 days. The procedure: (§1) MIC was determined using the broth microdilution method in 96-well plates as described previously ([47]). Briefly, a 10-point 2-fold serial dilution of compounds was performed in 96-well plates (Costar 3370; Corning, USA) starting at twice the desired highest concentration. […] One hundred microliters of the bacterial suspension was seeded onto the 96-well plates containing 100 μl of the serially diluted compounds to give a final volume of 200 μl in each well with the final OD600 of 0.005. The plates were sealed with parafilm, placed onto wet paper towels in a lock-lock box and incubated for 3 days at 37°C with orbital shaking at 90 rpm. […] Absorbance values at day 3 were subtracted from the day 0 readout. Percent growth inhibition was calculated by dividing the absolute absorbance value of treated cells with untreated control and multiplying by 100. CLR was included in all MIC experiments as a positive control to monitor assay reproducibility. MIC was defined as 90% of growth inhibition relative to untreated controls.

In assay [2] the test system is M. abscessus subsp. abscessus Bamboo. The experiment in a line: MIC, broth microdilution. The assay is classed as cell-based, Mycobacterium abscessus. The note with it: abscessus Bamboo wild type, 90% growth inhibition, 3 days. The method, then: as §1
(In broth dilution the organism is exposed to a series of concentrations in liquid medium.)

For assay [3], the system named is M. abscessus subsp. abscessus K21. The experiment in a line: MIC, broth microdilution. Type of assay: cell-based, Mycobacterium abscessus. The note with it: Mycobacteroides abscessus, 72 h, 90% growth inhibition, 3 days. The procedure: as §1
The test system of assay [4] is M. abscessus subsp. abscessus M199. Put plainly: MIC, broth microdilution. The assay is classed as cell-based, Mycobacterium abscessus. The note with it: Mycobacteroides abscessus, 72 h, 90% growth inhibition, 3 days. The method, then: as §1
Assay [5] relates to M. abscessus subsp. abscessus M337. The experiment in a line: MIC, broth microdilution. The assay is classed as cell-based, Mycobacterium abscessus. The note with it: Mycobacteroides abscessus, 72 h, 90% growth inhibition, 3 days. The procedure: as §1
In assay [6] the test system is M. abscessus subsp. abscessus M404. The experiment in a line: MIC, broth microdilution. Type of assay: cell-based, Mycobacterium abscessus. The note with it: Mycobacteroides abscessus, 72 h, 90% growth inhibition, 3 days. The method, then: as §1
For assay [7], the system named is M. abscessus subsp. abscessus M421. The experiment in a line: MIC, broth microdilution. Type of assay: cell-based, Mycobacterium abscessus. The note with it: Mycobacteroides abscessus, 72 h, 90% growth inhibition, 3 days. The method, then:
as §1

Assay [8] relates to M. abscessus subsp. abscessus M9. Put plainly: MIC, broth microdilution. Type of assay: cell-based, Mycobacterium abscessus. The note with it: Mycobacteroides abscessus, 72 h, 90% growth inhibition, 3 days. The method, then: as §1
Assay [9] concerns M. abscessus subsp. bolletii CCUG 50184T. Put plainly: MIC, broth microdilution. The note with it: Mycobacteroides abscessus, 72 h, 90% growth inhibition, 3 days. The assay is classed as cell-based, Mycobacterium abscessus. The procedure:
as §1

The test system of assay [10] is M. abscessus subsp. bolletii M232. Put plainly: MIC, broth microdilution. The note with it: Mycobacteroides abscessus, 72 h, 90% growth inhibition, 3 days. The assay is classed as cell-based, Mycobacterium abscessus. The procedure: as §1
For assay [11], the system named is M. abscessus subsp. bolletii M506. Put plainly: MIC, broth microdilution. The assay is classed as cell-based, Mycobacterium abscessus. The note with it: Mycobacteroides abscessus, 72 h, 90% growth inhibition, 3 days. The method, then:
as §1

Assay [12] concerns M. abscessus subsp. massiliense CCUG 48898T. Put plainly: MIC, broth microdilution. Type of assay: cell-based, Mycobacterium abscessus. The note with it: Mycobacteroides abscessus, 72 h, 90% growth inhibition, 3 days. The procedure:
as §1

For assay [13], the system named is M. abscessus subsp. massiliense M111. Put plainly: MIC, broth microdilution. The note with it: Mycobacteroides abscessus, 72 h, 90% growth inhibition, 3 days. Type of assay: cell-based, Mycobacterium abscessus. The procedure:
as §1

The subject of assay [14] is M. abscessus subsp. abscessus Bamboo 844^r-2 (GyrA D91N). Put plainly: MIC, resistant mutant. The note with it: Mycobacteroides abscessus. The assay is classed as cell-based, Mycobacterium abscessus.
Assay [15] deals with M. abscessus subsp. abscessus Bamboo 844^r-3 (GyrB S473W). Put plainly: MIC, resistant mutant. Type of assay: cell-based, Mycobacterium abscessus. The note with it: Mycobacteroides abscessus.
The subject of assay [16] is M. abscessus subsp. abscessus ATCC 19977 844-TMF^r-4 (GyrB M474I). Put plainly: MIC, resistant mutant. Type of assay: cell-based, Mycobacterium abscessus. The note with it: Mycobacteroides abscessus, ATCC19977.
The subject of assay [17] is M. abscessus subsp. abscessus ATCC 19977 MXF^r-1 (GyrA D96Y). The experiment in a line: MIC, resistant mutant. The note with it: Mycobacteroides abscessus, ATCC19977. The assay is classed as cell-based, Mycobacterium abscessus.
For assay [18], the system named is M. abscessus subsp. abscessus ATCC 19977 MXF^r-2 (GyrA D96N). Put plainly: MIC, resistant mutant. The assay is classed as cell-based, Mycobacterium abscessus. The note with it: Mycobacteroides abscessus, ATCC19977.
Assay [19] has as its system M. abscessus subsp. abscessus ATCC 19977 MXF^r-3 (GyrA D96G). Put plainly: MIC, resistant mutant. The assay is classed as cell-based, Mycobacterium abscessus. The note with it: Mycobacteroides abscessus, ATCC19977.
The target in assay [20] is recombinant M. abscessus wild-type DNA gyrase (Mycobacteroides abscessus, UniProt B1ME45+B1ME58). Put plainly: biochemical. Details: species or system Mycobacterium abscessus. The note with it: wild-type DNA gyrase; for IC50: relaxed pBR322 substrate, read-out: IC50, supercoiling activity.
Assay [21] has as its target GyrA D91N mutant recombinant M. abscessus DNA gyrase (Mycobacteroides abscessus, UniProt B1ME45+B1ME58, D91N). The assay is classed as biochemical, Mycobacterium abscessus.
Assay [22] has as its system P4C-resistant M. abscessus strains. The experiment in a line: Cross-resistance, MICs for P4C-resistant strains. Type of assay: cell-based, Mycobacterium abscessus. The note with it: P4C-resistant strains of Table 2.
Assay [23] concerns M. abscessus complex strains. The experiment in a line: MIC across reference strains and clinical isolates. Type of assay: cell-based, Mycobacterium abscessus. The note with it: Mycobacteroides abscessus; reference strains and clinical isolates of Table 1; read-out: MICs ranging across the M. abscessus complex strains. The method, then: as §1
Assay [24] has as its system M. abscessus subsp. abscessus ATCC 19977. Put plainly: Time-concentration kill assay, planktonic cultures. The assay is classed as cell-based, Mycobacterium abscessus. The note with it: 1×, 4×, 8× MIC; CFU after 2 and 3 days.
Method: At 0, 2, and 3 days, tubes were vortexed, and 20 μl of the cultures was transferred to round-bottom 96-well plates containing 180 μl of phosphate-buffered saline (PBS) (10010023; Thermo Fisher, USA) with 0.025% Tween 80 (PBS/Tween 80) for 10-fold serial dilution. To prevent compound carryover effects, we plated out serially diluted samples onto 7H10 agar supplemented with 0.4% activated charcoal (C9154; Sigma-Aldrich, USA) for all time points as described ([48]). CFU were enumerated after 4 days of incubation at 37°C.
In assay [25] the test system is M. abscessus subsp. abscessus ATCC 19977 biofilm. Put plainly: Antibiofilm activity, MBEC biofilm assay. Type of assay: cell-based, Mycobacterium abscessus. The note with it: 1×, 4×, 8× MIC; surface-attached CFU after 2 and 3 days. The procedure: The antibiofilm activity of 844 and 844-TMF was determined employing the MBEC 96-well Biofilm assay kit (19111; Innovotech, Edmonton, AB, Canada) as described previously ([15]) with minor modifications. Briefly, exponentially growing M. abscessus subsp. abscessus ATCC 19977 cultures were spun down at 3,200 × g for 10 min and washed with 7H9 broth without Tween 80 (‘7H9’). Bacteria were resuspended in ‘7H9’ to an OD600 of 0.0125, and 150 μl was dispensed into the wells of Innovotech 96-well plates. Pegs (protruding from the specialized lids of the Innovotech multiwell plates) were inserted into the bacterial suspensions in the wells, and the cultures were grown 24 h with shaking at 110 rpm at 37°C to allow attachment and growth of the bacteria on the surface of the pegs. […] Biofilm growth on the pegs was measured by CFU determination. The pegs were washed in 200 μl ‘7H9’ medium, removed, and placed in 1.7-ml microcentrifuge tubes (87003-294; VWR, Radnor, PA, USA) containing 500 μl PBS/Tween 80 (0.025%). The tubes were vortexed at 2,000 rpm for 90 s to detach and suspend the bacteria from the pegs before samples were serially diluted and plated onto 7H10 agar supplemented with 0.4% activated charcoal to determine CFU/peg.

In assay [26] the test system is M. abscessus subsp. abscessus Bamboo. Put plainly: Selection and characterization of spontaneous resistant mutants. The assay is classed as cell-based, Mycobacterium abscessus. The note with it: agar with 8× MIC.
Setting [27] is: Mycobacteroides abscessus, ATCC19977, 72 h.
[28] abbreviates: Mycobacteroides abscessus, 72 h.

recombinant M. abscessus wild-type DNA gyrase, sequence (B1ME58 entry or part of it): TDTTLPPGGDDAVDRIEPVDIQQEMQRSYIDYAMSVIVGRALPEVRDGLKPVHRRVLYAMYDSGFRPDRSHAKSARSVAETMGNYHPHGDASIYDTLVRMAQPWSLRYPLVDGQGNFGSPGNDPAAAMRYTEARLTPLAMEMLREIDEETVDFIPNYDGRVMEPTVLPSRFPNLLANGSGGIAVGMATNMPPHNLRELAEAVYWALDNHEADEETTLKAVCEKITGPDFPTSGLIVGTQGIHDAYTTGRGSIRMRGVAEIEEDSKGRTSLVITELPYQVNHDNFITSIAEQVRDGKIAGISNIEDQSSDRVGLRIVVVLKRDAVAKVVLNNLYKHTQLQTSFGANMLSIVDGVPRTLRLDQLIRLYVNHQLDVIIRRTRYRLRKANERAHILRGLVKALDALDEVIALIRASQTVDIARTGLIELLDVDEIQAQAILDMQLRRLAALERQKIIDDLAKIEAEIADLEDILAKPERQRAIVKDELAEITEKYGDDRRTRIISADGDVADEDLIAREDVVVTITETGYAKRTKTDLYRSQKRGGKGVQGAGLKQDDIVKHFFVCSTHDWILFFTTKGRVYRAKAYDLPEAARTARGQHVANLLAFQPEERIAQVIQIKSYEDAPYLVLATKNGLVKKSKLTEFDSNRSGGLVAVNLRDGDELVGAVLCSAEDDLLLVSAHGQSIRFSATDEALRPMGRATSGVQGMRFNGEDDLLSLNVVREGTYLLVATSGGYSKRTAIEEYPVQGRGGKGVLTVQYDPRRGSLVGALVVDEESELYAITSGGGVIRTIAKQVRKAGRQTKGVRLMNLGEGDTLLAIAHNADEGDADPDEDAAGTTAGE
recombinant M. abscessus wild-type DNA gyrase, sequence (B1ME45 entry or part of it): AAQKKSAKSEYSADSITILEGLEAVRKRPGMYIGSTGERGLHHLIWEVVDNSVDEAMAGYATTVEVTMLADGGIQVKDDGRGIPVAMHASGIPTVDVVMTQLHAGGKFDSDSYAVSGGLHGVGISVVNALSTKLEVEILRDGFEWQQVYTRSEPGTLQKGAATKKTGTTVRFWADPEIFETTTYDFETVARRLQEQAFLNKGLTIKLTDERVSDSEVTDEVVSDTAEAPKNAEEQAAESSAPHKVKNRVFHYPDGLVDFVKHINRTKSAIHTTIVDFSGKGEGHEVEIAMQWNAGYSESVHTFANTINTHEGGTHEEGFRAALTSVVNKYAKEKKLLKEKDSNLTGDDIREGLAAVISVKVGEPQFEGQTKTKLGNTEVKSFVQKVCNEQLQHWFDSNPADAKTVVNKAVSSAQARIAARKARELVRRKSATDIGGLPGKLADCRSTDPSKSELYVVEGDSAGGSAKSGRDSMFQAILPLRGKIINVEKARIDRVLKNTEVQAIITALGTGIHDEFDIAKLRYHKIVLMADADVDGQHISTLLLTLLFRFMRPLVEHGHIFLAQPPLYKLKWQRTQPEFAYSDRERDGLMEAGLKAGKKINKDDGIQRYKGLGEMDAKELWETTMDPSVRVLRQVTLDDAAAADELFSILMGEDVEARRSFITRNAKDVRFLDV
GyrA D91N mutant recombinant M. abscessus DNA gyrase, sequence (B1ME58 2-839, stated change not applied): as the sequence (B1ME58 entry or part of it) above
GyrA D91N mutant recombinant M. abscessus DNA gyrase, sequence (B1ME45 2-675, stated change not applied): as the sequence (B1ME45 entry or part of it) above

Take `COc1c(N2C[C@@H]3CCCN[C@@H]3C2)c(F)cc2c(=O)c(C(=O)O)cn(C3CC3)c12` [MXF, moxifloxacin]: the MIC in assay [1] (setting [27]) came to 3 µM (≈ 1.2 µg/mL); in assay [2] (setting [28]), 4 µM (≈ 1.61 µg/mL); in assay [2], 4 µM (≈ 1.61 µg/mL); in [3], 3 µM (≈ 1.2 µg/mL); in assay [4], 2.5 µM (≈ 1 µg/mL); in assay [5] it was 1.5 µM (≈ 0.602 µg/mL). Besides, the MIC is 3 µM (≈ 1.2 µg/mL) in [6]; 1.5 µM (≈ 0.602 µg/mL) in assay [7]; 1.5 µM (≈ 0.602 µg/mL) in assay [8]; 6.3 µM (≈ 2.53 µg/mL) in assay [9]; 1.5 µM (≈ 0.602 µg/mL) in [10]; 2.5 µM (≈ 1 µg/mL) in assay [11]. For the same molecule, the MIC in [12] worked out at 6.3 µM (≈ 2.53 µg/mL); in [13], 3.2 µM (≈ 1.28 µg/mL); in assay [14], 30 µM (≈ 12 µg/mL); in [15], 2 µM (≈ 0.803 µg/mL); in [16], 2 µM (≈ 0.803 µg/mL); in [17] it was 100 µM (≈ 40.1 µg/mL). The MIC in [18] and in [19] was 80 µM (≈ 32.1 µg/mL) each time.

As to `CCNC(=O)Nc1nc2cc(-c3cnc(C(C)(C)O)nc3)c(F)c([C@H]3CCCO3)c2[nH]1` [SPR719], the MIC in [1] (setting [27]) is 0.6 µM (≈ 0.257 µg/mL); in [2] (setting [28]), 0.8 µM (≈ 0.343 µg/mL); in assay [3] it was 1.5 µM (≈ 0.643 µg/mL); in assay [4] it was 1.5 µM (≈ 0.643 µg/mL); in assay [5] it was 0.8 µM (≈ 0.343 µg/mL); in assay [6] it was 1.5 µM (≈ 0.643 µg/mL). Also, the MIC is 0.8 µM (≈ 0.343 µg/mL) in [7]; 1.5 µM (≈ 0.643 µg/mL) in assay [8]; 1.5 µM (≈ 0.643 µg/mL) in assay [9]; 1.5 µM (≈ 0.643 µg/mL) in [10]; 1.5 µM (≈ 0.643 µg/mL) in assay [11]; 3 µM (≈ 1.29 µg/mL) in assay [12]. Moreover, the MIC in [13] was found to be 6.3 µM (≈ 2.7 µg/mL); in assay [14], 0.1 µM (≈ 0.0428 µg/mL); in assay [15], 0.05 µM (≈ 0.0214 µg/mL); in [16], 0.3 µM (≈ 0.129 µg/mL); in assay [17], 0.8 µM (≈ 0.343 µg/mL); in [18], 0.2 µM (≈ 0.0857 µg/mL). The molecule further returned an MIC in assay [19] of 0.3 µM (≈ 0.129 µg/mL). In [20], the IC50 was 2.3 µM. The “effect on supercoiling activity” value in assay [20] (up to 50 μM) is “inhibited supercoiling activity”. Further, the “IC50, supercoiling activity” value in [21] is reported as “same IC50 as the wild-type enzyme”. In addition, in [22], the “cross-resistance caused by P4C resistance mutations” value was “did not cause cross-resistance”.

Take `COc1ccc2nccc(NC(=O)C3CCN(CCc4ccc(Cl)cc4)CC3)c2n1` [compound 844]: the MIC in assay [1] (setting [27]) was 8 µM (≈ 3.4 µg/mL); in assay [1], 8 µM (≈ 3.4 µg/mL); in [2] (setting [28]) it was 12 µM (≈ 5.1 µg/mL); in assay [2], 12 µM (≈ 5.1 µg/mL); in [3] it was 14 µM (≈ 5.95 µg/mL); in [4], 6.3 µM (≈ 2.68 µg/mL). Moreover, the MIC in assay [5] was determined as 6.3 µM (≈ 2.68 µg/mL); in [6], 6.3 µM (≈ 2.68 µg/mL); in assay [7], 6.3 µM (≈ 2.68 µg/mL); in [8], 6.3 µM (≈ 2.68 µg/mL); in [9], 14 µM (≈ 5.95 µg/mL); in assay [10], 6.3 µM (≈ 2.68 µg/mL). For the same molecule, the MIC in [11] is 6.3 µM (≈ 2.68 µg/mL); in assay [12], 14 µM (≈ 5.95 µg/mL); in assay [13], 12.5 µM (≈ 5.31 µg/mL); in assay [14] it was greater than 100 µM; in assay [15], 90 µM (≈ 38.2 µg/mL); in [16], 40 µM (≈ 17 µg/mL). In addition, the MIC is 40 µM (≈ 17 µg/mL) in assay [17], 15 µM (≈ 6.37 µg/mL) in assay [18], 15 µM (≈ 6.37 µg/mL) in [19] and 6 to 14 µM (≈ 2.55 to 5.95 µg/mL) in assay [23]. The IC50 in assay [20] was 4.6 µM. For the same molecule, the “effect on supercoiling activity” value in assay [21] (GyrA D91N mutant DNA gyrase, up to 50 μM) is recorded as “No inhibition”. In addition, in assay [24], the “bactericidal activity in planktonic cultures” value is recorded as “bactericidal”. Further, the “bactericidal activity against M. abscessus grown as biofilm” value in assay [25] is given as “bactericidal”. Moreover, in assay [26], the “frequency of spontaneous resistance” value is reported as 10^−8 /CFU.
